Values quoted from earlier work as cited in PubChem BioAssay AID1259409 (Chemical Carcinogenesis Research Information System (CCRIS), 2018).

System: rodent chemically induced tumor inhibition, incidence and multiplicity
Assay: CCRIS tumor inhibitor studies
Conditions: Route [Inhibitor]: ORAL, Species: RAT, Strain/Sex: SPRAGUE-DAWLEY/FEMALE

COc1ccc(C[C@H]2COC(=O)[C@@H]2Cc2ccc(O[C@@H]3O[C@H](CO)[C@@H](O)[C@H](O)[C@H]3O)c(OC)c2)cc1OC
tumour outcome (control, treated, inhibition, significance) (Carcinogen: 2-AMINO-1-METHYL-6-PHENYL-1H-IMIDAZO[4,5-B]PYRID INE, 105650-23-5, Dose [Inhibitor]: 0, 0.02% IN THE DIET FOR 8 WK BEGINNING 3 D POST LAST CARCINOGEN DOSE (STUDY DURATION: 48 WK), Target Tissue: Type of Lesion: MAMMARY GLAND: ADENOCARCINOMA, Dose [Carcinogen]: 100 MG/KG BW 1/WK FOR 8 WK BEGINNING AT 6 WK OF AGE, Promoter: NONE USED): 12/20 (60%), 10/19 (53%), 12%, not significant
tumour outcome (control, treated, inhibition, significance) (Carcinogen: 2-AMINO-1-METHYL-6-PHENYL-1H-IMIDAZO[4,5-B]PYRID INE, 105650-23-5, Dose [Inhibitor]: 0, 0.02% IN THE DIET FOR 8 WK BEGINNING 3 D POST LAST CARCINOGEN DOSE (STUDY DURATION: 48 WK), Target Tissue: Type of Lesion: MAMMARY GLAND: FIBROADENOMA, Dose [Carcinogen]: 100 MG/KG BW 1/WK FOR 8 WK BEGINNING AT 6 WK OF AGE, Promoter: NONE USED): 2/20 (10%), 2/19 (11%), -10%, not significant
tumour outcome (control, treated, inhibition, significance) (Carcinogen: 2-AMINO-1-METHYL-6-PHENYL-1H-IMIDAZO[4,5-B]PYRID INE, 105650-23-5, Dose [Inhibitor]: 0, 0.02% IN THE DIET FOR 8 WK BEGINNING 3 D PRIOR TO FIRST CARCINOGEN DOSE (STUDY DURATION: 48 WK), Target Tissue: Type of Lesion: MAMMARY GLAND: ADENOCARCINOMA, Dose [Carcinogen]: 100 MG/KG BW 1/WK FOR 8 WK CONCURRENT WITH INHIBITOR, Promoter: NONE USED): 12/20 (60%), 11/20 (55%), 8%, not significant
tumour outcome (control, treated, inhibition, significance) (Carcinogen: 2-AMINO-1-METHYL-6-PHENYL-1H-IMIDAZO[4,5-B]PYRID INE, 105650-23-5, Dose [Inhibitor]: 0, 0.02% IN THE DIET FOR 8 WK BEGINNING 3 D PRIOR TO FIRST CARCINOGEN DOSE (STUDY DURATION: 48 WK), Target Tissue: Type of Lesion: MAMMARY GLAND: FIBROADENOMA, Dose [Carcinogen]: 100 MG/KG BW 1/WK FOR 8 WK CONCURRENT WITH INHIBITOR, Promoter: NONE USED): 2/20 (10%), 3/20 (15%), -50%, not significant
tumour outcome (control, treated, inhibition, significance) (Carcinogen: 2-AMINO-1-METHYL-6-PHENYL-1H-IMIDAZO[4,5-B]PYRID INE, 105650-23-5, Dose [Inhibitor]: 0, 0.2% IN THE DIET FOR 8 WK BEGINNING 3 D POST LAST CARCINOGEN DOSE (STUDY DURATION: 48 WK), Target Tissue: Type of Lesion: MAMMARY GLAND: ADENOCARCINOMA, Dose [Carcinogen]: 100 MG/KG BW 1/WK FOR 8 WK BEGINNING AT 6 WK OF AGE, Promoter: NONE USED): 12/20 (60%), 11/20 (55%), 8%, not significant
tumour outcome (control, treated, inhibition, significance) (Carcinogen: 2-AMINO-1-METHYL-6-PHENYL-1H-IMIDAZO[4,5-B]PYRID INE, 105650-23-5, Dose [Inhibitor]: 0, 0.2% IN THE DIET FOR 8 WK BEGINNING 3 D POST LAST CARCINOGEN DOSE (STUDY DURATION: 48 WK), Target Tissue: Type of Lesion: MAMMARY GLAND: ADENOCARCINOMA, Dose [Carcinogen]: 100 MG/KG BW 1/WK FOR 8 WK CONCURRENT WITH INHIBITOR, Promoter: NONE USED): 12/20 (60%), 13/20 (65%), -8%, not significant
tumour outcome (control, treated, inhibition, significance) (Carcinogen: 2-AMINO-1-METHYL-6-PHENYL-1H-IMIDAZO[4,5-B]PYRID INE, 105650-23-5, Dose [Inhibitor]: 0, 0.2% IN THE DIET FOR 8 WK BEGINNING 3 D PRIOR TO FIRST CARCINOGEN DOSE (STUDY DURATION: 48 WK), Target Tissue: Type of Lesion: MAMMARY GLAND: FIBROADENOMA, Dose [Carcinogen]: 100 MG/KG BW 1/WK FOR 8 WK CONCURRENT WITH INHIBITOR, Promoter: NONE USED): 2/20 (10%), 4/20 (20%), -100%, not significant
tumour outcome (control, treated, inhibition, significance) (Carcinogen: 2-AMINO-1-METHYL-6-PHENYL-1H-IMIDAZO[4,5-B]PYRID INE, Dose [Inhibitor]: 0, 0.2% IN THE DIET FOR 8 WK BEGINNING 3 D POST LAST CARCINOGEN DOSE (STUDY DURATION: 48 WK), Target Tissue: Type of Lesion: MAMMARY GLAND: FIBROADENOMA, Dose [Carcinogen]: 100 MG/KG BW 1/WK FOR 8 WK BEGINNING AT 6 WK OF AGE, Promoter: NONE USED): 2/20 (10%), 2/20 (10%), 0%, not significant
tumour outcome (control, treated, inhibition, significance) (Carcinogen: 2-AMINO-1-METHYL-6-PHENYLIMIDAZO[4,5-B]PYRIDINE [105650-23-5], Dose [Inhibitor]: 0.02% IN DIET FOR 8 WK BEGINNING 3 D PRIOR TO FIRST CARCINOGEN DOSE (STUDY DURATION: 48 WK), Target Tissue: Type of Lesion: MAMMARY GLAND: CARCINOMA, Dose [Carcinogen]: 100 MG/KG BW 1X/WK FOR 8 WK (STUDY DURATION: 48 WK), Promoter: NONE): 12/20 (60%), 11/20 (55%), 8%, not significant
tumour outcome (control, treated, inhibition, significance) (Carcinogen: 2-AMINO-1-METHYL-6-PHENYLIMIDAZO[4,5-B]PYRIDINE [105650-23-5], Dose [Inhibitor]: 0.02% IN DIET FOR 8 WK BEGINNING 3 D PRIOR TO FIRST CARCINOGEN DOSE (STUDY DURATION: 48 WK), Target Tissue: Type of Lesion: MAMMARY GLAND: FIBROADENOMA, Dose [Carcinogen]: 100 MG/KG BW 1X/WK FOR 8 WK (STUDY DURATION: 48 WK), Promoter: NONE): 2/20 (10%), 3/20 (15%), -50%, not significant
tumour outcome (control, treated, inhibition, significance) (Carcinogen: 2-AMINO-1-METHYL-6-PHENYLIMIDAZO[4,5-B]PYRIDINE [105650-23-5], Dose [Inhibitor]: 0.02% IN DIET FOR 40 WK BEGINNING 3 D POST LAST CARCINOGEN DOSE (STUDY DURATION: 48 WK), Target Tissue: Type of Lesion: MAMMARY GLAND: CARCINOMA, Dose [Carcinogen]: 100 MG/KG BW 1X/WK FOR 8 WK (STUDY DURATION: 48 WK), Promoter: NONE): 12/20 (60%), 10/19 (53%), 12%, not significant
tumour outcome (control, treated, inhibition, significance) (Carcinogen: 2-AMINO-1-METHYL-6-PHENYLIMIDAZO[4,5-B]PYRIDINE [105650-23-5], Dose [Inhibitor]: 0.02% IN DIET FOR 40 WK BEGINNING 3 D POST LAST CARCINOGEN DOSE (STUDY DURATION: 48 WK), Target Tissue: Type of Lesion: MAMMARY GLAND: FIBROADENOMA, Dose [Carcinogen]: 100 MG/KG BW 1X FOR 8 WK (STUDY DURATION: 48 WK), Promoter: NONE): 2/20 (10%), 2/19 (11%), -10%, not significant
tumour outcome (control, treated, inhibition, significance) (Carcinogen: 2-AMINO-1-METHYL-6-PHENYLIMIDAZO[4,5-B]PYRIDINE [105650-23-5], Dose [Inhibitor]: 0.2% IN DIET FOR 8 WK BEGINNING 3 D PRIOR TO FIRST CARCINOGEN DOSE (STUDY DURATION: 48 WK), Target Tissue: Type of Lesion: MAMMARY GLAND: CARCINOMA, Dose [Carcinogen]: 100 MG/KG BW 1X/WK FOR 8 WK (STUDY DURATION: 48 WK), Promoter: NONE): 12/20 (60%), 13/20 (65%), -8%, not significant
tumour outcome (control, treated, inhibition, significance) (Carcinogen: 2-AMINO-1-METHYL-6-PHENYLIMIDAZO[4,5-B]PYRIDINE [105650-23-5], Dose [Inhibitor]: 0.2% IN DIET FOR 8 WK BEGINNING 3 D PRIOR TO FIRST CARCINOGEN DOSE (STUDY DURATION: 48 WK), Target Tissue: Type of Lesion: MAMMARY GLAND: FIBROADENOMA, Dose [Carcinogen]: 100 MG/KG BW 1X/WK FOR 8 WK (STUDY DURATION: 48 WK), Promoter: NONE): 2/20 (10%), 4/20 (20%), -100%, not significant
tumour outcome (control, treated, inhibition, significance) (Carcinogen: 2-AMINO-1-METHYL-6-PHENYLIMIDAZO[4,5-B]PYRIDINE [105650-23-5], Dose [Inhibitor]: 0.2% IN DIET FOR 40 WK BEGINNING 3 D POST LAST CARCINOGEN DOSE (STUDY DURATION: 48 WK), Target Tissue: Type of Lesion: MAMMARY GLAND: CARCINOMA, Dose [Carcinogen]: 100 MG/KG BW 1X FOR 8 WK (STUDY DURATION: 48 WK), Promoter: NONE): 12/20 (60%), 11/20 (55%), 8%, not significant
tumour outcome (control, treated, inhibition, significance) (Carcinogen: 2-AMINO-1-METHYL-6-PHENYLIMIDAZO[4,5-B]PYRIDINE [105650-23-5], Dose [Inhibitor]: 0.2% IN DIET FOR 40 WK BEGINNING 3 D POST LAST CARCINOGEN DOSE (STUDY DURATION: 48 WK), Target Tissue: Type of Lesion: MAMMARY GLAND: FIBROADENOMA, Dose [Carcinogen]: 100 MG/KG BW 1X FOR 8 WK (STUDY DURATION: 48 WK), Promoter: NONE): 2/20 (10%), 2/20 (10%), 0%, not significant
